Reference: ChEMBL document CHEMBL5257110, “Recent developments of imidazo[1,2-a]pyridine analogues as antituberculosis agents” (RSC Med Chem, 2023)
In brackets after ≈: the same amount, converted by molar mass.

Experiments:
[1] = system: Mycobacterium tuberculosis; assay: Antimycobacterial activity against Mycobacterium tuberculosis H37Rv; format: functional
[2] = system: Mycobacterium tuberculosis; assay: Antimycobacterial activity against replicating Mycobacterium tuberculosis H37Rv; format: functional
[3] = system: Mycobacterium tuberculosis; assay: Antimycobacterial activity against drug-sensitive Mycobacterium tuberculosis H37Rv; format: functional
[4] = system: Mycolicibacterium smegmatis; assay: Antimycobacterial activity against Mycobacterium smegmatis; format: functional
[5] = system: Mycobacterium tuberculosis; assay: Antibacterial activity against non-replicating Mycobacterium tuberculosis H37Rv-LUX assessed as inhibition of bacterial growth incubated for 9 days under anaerobic conditions followed by 28 hrs under aerobic conditions by LORA assay; format: functional; conditions: time 244 hrs
[6] = Cytotoxicity against African green monkey Vero cells assessed as reduction in cell viability; format: toxicity, cell-based, Chlorocebus sabaeus; conditions: for IC50: African green monkey
[7] = Aqueous solubility of the compound; format: physicochemical; conditions: aqueous medium
[8] = Microsomal stability in human liver microsomes assessed as half life; format: ADME, Microsome
[9] = system: Mycobacterium tuberculosis; assay: Antimycobacterial activity against Mycobacterium tuberculosis Erdman infected in BALB/c mouse model assessed as log reduction of bacterial load in lung at 200 mg/kg, po administered 5 days a week for 30 days untill day 58; format: functional; conditions: time 58 day
[10] = system: Mycobacterium tuberculosis; assay: Antimycobacterial activity against Mycobacterium tuberculosis 7H12; format: functional
[11] = Cytotoxicity against CHO-K1 cells; format: toxicity, cell-based, Cricetulus griseus; conditions: Chinese hamster
[12] = system: Mycobacterium tuberculosis; assay: Antimycobacterial activity against drug-sensitive Mycobacterium tuberculosis V4207; format: functional
[13] = system: Mycobacterium tuberculosis; assay: Antimycobacterial activity against MDR-Mycobacterium tuberculosis KZN494; format: functional
[14] = system: Mycobacterium tuberculosis; assay: Antimycobacterial activity against MDR-Mycobacterium tuberculosis V2475; format: functional
[15] = system: Mycobacterium tuberculosis; assay: Antimycobacterial activity against XDR-Mycobacterium tuberculosis R506; format: functional
[16] = system: Mycobacterium tuberculosis; assay: Antimycobacterial activity against XDR-Mycobacterium tuberculosis TF274; format: functional
[17] = Selectivity index, ratio of IC50 for cytotoxicity against African green monkey Vero cells to MIC90 for antimycobacterial activity against drug-sensitive Mycobacterium tuberculosis H37Rv; format: toxicity, cell-based; conditions: read-out: Selectivity Index
[18] = Selectivity index, ratio of IC50 for cytotoxicity against African green monkey Vero cells to MIC90 for antimycobacterial activity against drug-sensitive Mycobacterium tuberculosis V4207; format: toxicity, cell-based; conditions: read-out: Selectivity Index
[19] = Selectivity index, ratio of IC50 for cytotoxicity against African green monkey Vero cells to MIC90 for antimycobacterial activity against MDR-Mycobacterium tuberculosis KZN494; format: toxicity, cell-based; conditions: read-out: Selectivity Index
[20] = Selectivity index, ratio of IC50 for cytotoxicity against African green monkey Vero cells to MIC90 for antimycobacterial activity against MDR-Mycobacterium tuberculosis V2475; format: toxicity, cell-based; conditions: read-out: Selectivity Index
[21] = Selectivity index, ratio of IC50 for cytotoxicity against African green monkey Vero cells to MIC90 for antimycobacterial activity against XDR-Mycobacterium tuberculosis R506; format: toxicity, cell-based; conditions: read-out: Selectivity Index
[22] = Selectivity index, ratio of IC50 for cytotoxicity against African green monkey Vero cells to MIC90 for antimycobacterial activity against XDR-Mycobacterium tuberculosis TF274; format: toxicity, cell-based; conditions: read-out: Selectivity Index

## Cc1ccn2nc(C)c(C(=O)NCc3ccc(C(F)(F)F)cc3)c2c1
[1]
  MIC90: 0.069 µM (≈ 0.024 µg/mL)

## CCc1ccn2c(C(=O)NCc3ccc(C)cc3)c(C)nc2c1
[2]
  MIC90: 0.004 µM (≈ 0.00123 µg/mL)

## Cc1ccn2c(C(=O)NCc3ccccc3)c(C)nc2c1
[1]
  MIC99: 0.2 µM (≈ 0.0559 µg/mL)

## Cc1ccc2nc(C)c(C(=O)NCc3cccs3)n2c1
[3]
  MIC90: 0.22 µM (≈ 0.0628 µg/mL)

## Cc1nc(-c2ccc(F)cc2)sc1-c1cn2ccccc2n1
[4]
  MIC90: 90.2 µM (≈ 27.9 µg/mL)

## Cc1ccc(CNC(=O)Cc2c(C)nc3ccc(C)cn23)cc1
[1]
  MIC90: 1.7 µM (≈ 0.523 µg/mL)

## Cc1nc(-c2ccccc2)sc1-c1cn2ccc(Br)cc2n1
[4]
  MIC90: 67.5 µM (≈ 25 µg/mL)

## Cc1cn2c(C(=O)NCc3ccc(N4CCN(c5ccc(OC(F)(F)F)cc5)CC4)c(F)c3)c(C)nc2s1
[2]
  MIC90: 0.008 µM (≈ 0.00438 µg/mL)
[5]
  MIC90: 1.1 µM (≈ 0.602 µg/mL)
[6]; chlorocebus sabaeus
  CC50: > 100 µM
[7]
  solubility: 50 µM (≈ 27.4 µg/mL)
[8]
  half-life: 28 min
[9]
  Activity: 0.3 log10CFU

## CC(C)(C)OC(=O)N1CCN(c2nc(=O)c3cc(C(F)(F)F)cc([N+](=O)[O-])c3s2)CC1
[10]
  MIC90: 0.28 µM (≈ 0.129 µg/mL)

## N#Cc1cccc(Nc2cc(C(F)(F)F)ccc2-c2cnc3ccccn23)c1
[11]
  IC50: 217 µM
[1]
  MIC90: 6.08 µM (≈ 2.3 µg/mL)

## COc1ccn2nc(C)c(C(=O)NCc3ccc(N4CCC(c5ccc(OC(F)(F)F)cc5)CC4)cc3)c2c1
[1]
  MIC90: 0.011 µM (≈ 0.00592 µg/mL)

## Cc1ccn2c(C(=O)N3CCN(c4nc(=O)c5cc(C(F)(F)F)cc([N+](=O)[O-])c5s4)CC3)c(C)nc2c1
[10]
  MIC90: 2.1 µM (≈ 1.12 µg/mL)

## Cc1ccn2c(C(=O)NCc3ccc(C(=O)N4CCN(c5nc(=O)c6cc(C(F)(F)F)cc([N+](=O)[O-])c6s5)CC4)cc3)c(C)nc2c1
[10]
  MIC90: > 10 µM

## Cc1ccc(-c2nc3ccc(C)cn3c2CC(=O)N(C)C)cc1 [ZOLPIDEM]
[2]
  MIC90: 10 µM (≈ 3.07 µg/mL)

## Cc1nc2ccc(Cl)cn2c1C(=O)NCCCC1CCCCC1
[6]
  IC50: ≥ 191 µM
[3]
  MIC90: 0.19 µM (≈ 0.0634 µg/mL)
[12]
  MIC90: 0.37 µM (≈ 0.124 µg/mL)
[13]
  MIC90: 0.09 µM (≈ 0.03 µg/mL)
[14]
  MIC90: 0.37 µM (≈ 0.124 µg/mL)
[15]
  MIC90: 0.75 µM (≈ 0.25 µg/mL)
[16]
  MIC90: 1.5 µM (≈ 0.501 µg/mL)
[17]
  selectivity ratio: ≥ 1024
[18]
  selectivity ratio: ≥ 1024
[19]
  selectivity ratio: ≥ 1024
[20]
  selectivity ratio: ≥ 1024
[21]
  selectivity ratio: ≥ 1024
[22]
  selectivity ratio: ≥ 1024

## Cc1ccn2c(C(=O)NCc3ccc(C(=O)OCc4ccccc4)cc3)c(C)nc2c1
[10]
  MIC90: 0.21 µM (≈ 0.0868 µg/mL)

## Cc1ccc2nc(C)c(C(=O)NCCCC3CCCCC3)n2c1
[6]
  IC50: 120 µM
[3]
  MIC90: 0.1 µM (≈ 0.0313 µg/mL)
[12]
  MIC90: 0.1 µM (≈ 0.0313 µg/mL)
[13]
  MIC90: 0.05 µM (≈ 0.0157 µg/mL)
[14]
  MIC90: 0.2 µM (≈ 0.0627 µg/mL)
[15]
  MIC90: 0.1 µM (≈ 0.0313 µg/mL)
[16]
  MIC90: 0.2 µM (≈ 0.0627 µg/mL)
[17]
  selectivity ratio: ≥ 1024
[18]
  selectivity ratio: ≥ 1024
[19]
  selectivity ratio: ≥ 1024
[20]
  selectivity ratio: ≥ 1024
[21]
  selectivity ratio: ≥ 1024
[22]
  selectivity ratio: ≥ 1024

## Cc1nc(-c2ccc(F)cc2)sc1-c1cn2ccc(Br)cc2n1
[4]
  MIC90: 53.6 µM (≈ 20.8 µg/mL)
